Values of other authors as cited in US20170080013A1, “METHODS AND COMPOSITIONS FOR DERMATOLOGICAL USE COMPRSING HYDROCORTISONE ACETATE AND BIOPOLYMERS” (APEX LABORATORIES PRIVATE LIMITED, priority 2015, published 2017).

Solubility in alcohol (alcohol): slightly soluble
Solubility in chloroform (chloroform): slightly soluble
Solubility in water (water): insoluble
Structure (SMILES): CC(=O)OCC(=O)[C@@]1(O)CC[C@H]2[C@@H]3CCC4=CC(=O)CC[C@]4(C)[C@H]3[C@@H](O)C[C@@]21C [Hydrocortisone acetate, 11β, 17-dihydroxy-3, 20-dioxopregn-4-en-21-yl acetate]
